Source: US8187826B2, “Quantitative analysis of in vivo mutation at the Pig-A locus” (Litron Laboratories, Ltd., priority 2008, dated 2012)

What was measured:
reticulocytes [1] = assay: frequency of reticulocytes (% RET) in peripheral blood, flow cytometry, rats; type: in vivo; conditions: male Wistar rats, FIG. 5A
From the text: These in vivo experiments utilized naïve rats and focused on the development of simple and reproducible methods for staining and analyzing peripheral blood RBCs and RETs for the GPI anchor-deficient phenotype. As reported elsewhere, it was confirmed that the GPI-anchored protein CD59 is highly and stably expressed on RBCs throughout their lifespan in circulation (Hernández-Campo et al., “Quantitative Analysis of the Expression of Glycosylphosphatidylinositol-Anchored Proteins During the Maturation of Different Hematopoietic Cell Compartments of Normal Bone Marrow,” Cytometry 72B:34-42 (2007), which is hereby incorporated by reference in its entirety). […] A second fluorescent reagent, SYTO® 13 dye, was chosen to differentially stain NCEs, RETs, and leukocytes. […] Secondly, it provided better fluorescent resolution between NCEs, RETs and blood leukocytes. The separation of these latter two populations is particularly important, because not all leukocytes express CD59, and these cells can therefore be mistaken for GPI anchor-deficient RBCs if they are not excluded from analysis. […]
The prior three-color staining strategy outlined above has been described in Bryce et al., “In vivo mutation assay based on the endogenous Pig-a locus”, Environ. […] Samples processed in this manner were evaluated with and without the anti-platelet antibody, and virtually identical values were consistently obtained. […]

[2] = test system: GPI anchor-deficient RBCs (Pig-A locus); assay: Pig-A mutation assay: frequency of GPI anchor-deficient (mutant phenotype) RBCs, rats; type: in vivo, Wistar rats
From the text: (§1) These in vivo experiments utilized naïve rats and focused on the development of simple and reproducible methods for staining and analyzing peripheral blood RBCs and RETs for the GPI anchor-deficient phenotype. As reported elsewhere, it was confirmed that the GPI-anchored protein CD59 is highly and stably expressed on RBCs throughout their lifespan in circulation (Hernández-Campo et al., “Quantitative Analysis of the Expression of Glycosylphosphatidylinositol-Anchored Proteins During the Maturation of Different Hematopoietic Cell Compartments of Normal Bone Marrow,” Cytometry 72B:34-42 (2007), which is hereby incorporated by reference in its entirety). […] A second fluorescent reagent, SYTO® 13 dye, was chosen to differentially stain NCEs, RETs, and leukocytes. […] Secondly, it provided better fluorescent resolution between NCEs, RETs and blood leukocytes. The separation of these latter two populations is particularly important, because not all leukocytes express CD59, and these cells can therefore be mistaken for GPI anchor-deficient RBCs if they are not excluded from analysis. Early staining trials also included a third fluorescent reagent, anti-platelet antibody (biotinylated anti-CD61 plus streptavidin-Cy5-PE), which was added to positively identify platelets and prevent platelets from interfering with the RBC-centric analyses.
(§2) The prior three-color staining strategy outlined above has been described in Bryce et al., “In vivo mutation assay based on the endogenous Pig-a locus”, Environ. Molec. Mutagen. 49:256-264 (2008) as well as U.S. Patent Application Publ. […] Samples processed in this manner were evaluated with and without the anti-platelet antibody, and virtually identical values were consistently obtained. […]
(§3) The thresholding technique is based on the fact that the vast majority of Lympholyte® processed blood cells are mature RBCs. […] In this case, it is possible to set the threshold parameter to the nucleic acid dye-associated fluorescence channel (i.e., FL1 for SYTO® 13), as opposed to the more common forward scatter trigger. […]

[3] = test system: GPI anchor-deficient RETs (Pig-A locus); assay: Pig-A mutation assay: frequency of GPI anchor-deficient (mutant phenotype) RETs, rats; type: in vivo, Wistar rats
From the text: as §1, §2, §3

reticulocytes [4] = assay: frequency of reticulocytes (% RET) in peripheral blood, flow cytometry, mice; type: in vivo; conditions: male CD-1 mice, 40 mg/kg/day oral gavage Days 1-3, FIG. 8A
Description: (§4) The cross-species potential of this assay is illustrated by this example, whereby male CD-1 mice were treated on three consecutive days (Day 1, 2 and 3) with N-ethyl-N-nitrosourea (ENU) via oral gavage. The dose levels were 0 or 40 mg/kg/day. Blood harvests occurred on Days 4, 15, 30, 45 and 90 (n=5 per time point per dose). Whereas the rat experiments described in Examples 2-4 above were based on serial blood draws, the mouse experiments were not. Rather, each mouse provided only one blood specimen, thereby requiring like-treated groups of animals to generate the data for each time point studied. This was done to eliminate the possible confounding effect that repeat-blood sampling may have had on the results given the low total blood volume associated with this particular small animal model.

[5] = test system: GPI anchor-deficient RBCs (Pig-A locus); assay: Pig-A mutation assay: frequency of mutant phenotype RBCs, mice; type: in vivo; conditions: male CD-1 mice, 40 mg/kg/day oral gavage Days 1-3, FIG. 8B
Description: as §4

[6] = test system: GPI anchor-deficient RETs (Pig-A locus); assay: Pig-A mutation assay: frequency of mutant phenotype RETs, mice; type: in vivo; conditions: male CD-1 mice, 40 mg/kg/day oral gavage Days 1-3, FIG. 8C
Description: as §4

Q: CCN(N=O)C(N)=O [ENU, N-ethyl-N-nitrosourea] was tested. Which “frequency of reticulocytes (% RET)” value (reticulocytes [1]; 20 or 40 mg/kg/day oral gavage Days 1-3, vs vehicle control) did it give?
A: mean % RET are reduced in a dose-dependent manner

Q: What about the “frequency of reticulocytes (% RET), rebound effect” value (reticulocytes [1]; high dose group (40 mg/kg/day oral gavage Days 1-3), vs control values) of the same molecule?
A: “overshoots” the control values

Q: What about the “frequency of mutant phenotype RBCs” value ([2]; male Wistar rats, 1, 5, 10 or 15 mg/kg/day oral gavage on 14 consecutive days, blood Day 23, FIG. 7A) of the same molecule?
A: very robust, dose-related increase in mutant cells

Q: What about the “frequency of mutant phenotype (GPI anchor-deficient) RBCs” value ([2]; male Wistar rats, 20 or 40 mg/kg/day oral gavage Days 1-3, Day 15 through Day 90, FIG. 5B) of the same molecule?
A: Robust, dose-related increases in mutant cell frequency

Q: And the “day on which maximal mutant RBC frequency is reached” value ([2]; male Wistar rats, 20 or 40 mg/kg/day oral gavage Days 1-3, plateau thereafter, FIG. 5B)?
A: ≤ 45 days

Q: And the “frequency of mutant phenotype RETs” value ([3]; male Wistar rats, 1, 5, 10 or 15 mg/kg/day oral gavage on 14 consecutive days, blood Day 23, FIG. 7B)?
A: very robust, dose-related increase in mutant cells

Q: And the “day on which maximal or near-maximal mutant RET frequency is reached” value ([3]; male Wistar rats, 20 or 40 mg/kg/day oral gavage Days 1-3, FIG. 5C)?
A: 15 days

Q: What about the “frequency of mutant phenotype (GPI anchor-deficient) RETs” value ([3]; male Wistar rats, 20 or 40 mg/kg/day oral gavage Days 1-3, evident by Day 15, FIG. 5C) of the same molecule?
A: Robust, dose-related increases in mutant cell frequency

Q: What about the “frequency of reticulocytes (% RET)” value (reticulocytes [4]; Day 4) of the same molecule?
A: significantly reduced

Q: What about the “frequency of reticulocytes (% RET), rebound effect” value (reticulocytes [4]; Day 15, vs control values) of the same molecule?
A: “overshoots” the control values

Q: What about the “frequency of mutant phenotype RBCs” value ([5]; by Day 15) of the same molecule?
A: increased mutant cell frequencies

Q: What about the “day on which maximum mutant RBC frequency is apparent” value ([5]; stable thereafter through Day 90) of the same molecule?
A: 30 days

Q: What about the “frequency of mutant phenotype RETs” value ([6]; Day 15) of the same molecule?
A: greatly elevated

Q: What about the “frequency of mutant phenotype RETs” value ([6]; through Day 90) of the same molecule?
A: Robust increases in mutant cell frequency
